The text below walks through data of PubChem BioAssay AID1259407 (Chemical Carcinogenesis Research Information System (CCRIS), 2018).

This data set has as its system CCRIS mutagenicity, Ames/micronucleus/aberration tests. Put plainly: CCRIS mutagenicity studies.
Where [1] appears, read: Test System: AMES SALMONELLA TYPHIMURIUM, Strain/Indicator: TA100, Metabolic Activation: NONE, Method: STANDARD PLATE.
Where [2] appears, read: Test System: AMES SALMONELLA TYPHIMURIUM, Strain/Indicator: TA98, Metabolic Activation: NONE, Method: STANDARD PLATE.
Setting [3] is: Test System: AMES SALMONELLA TYPHIMURIUM, Strain/Indicator: TA98, Metabolic Activation: RAT, LIVER, S-9, AROCLOR 1254, Method: STANDARD PLATE.
[4] abbreviates: Test System: AMES SALMONELLA TYPHIMURIUM, Strain/Indicator: TA100, Metabolic Activation: RAT, LIVER, S-9, AROCLOR 1254, Method: STANDARD PLATE.

Activity calls are given as the source filed them. No rule for the calls is given here.

Consider `COc1ccc(CON(OC(C)=O)C(=O)c2ccccc2)cc1`, for which the mutagenic call is, setting by setting: under setting [1], “active; positive”; (Test System: AMES SALMONELLA TYPHIMURIUM, Strain/Indicator: TA100, Metabolic Activation: RAT, S-9, AROCLOR, Method: STANDARD PLATE) “active; positive”.
As to `C[C@H]1C=C(C=O)C(C=O)=C[C@]2(O)CC(C)(C)C[C@H]12`, the mutagenic call under setting [2] is “active; positive”; the mutagenic call under setting [1] was “active; positive”; the mutagenic call (Test System: AMES SALMONELLA TYPHIMURIUM, Strain/Indicator: TA2637, Metabolic Activation: NONE, Method: STANDARD PLATE) is “inactive; negative”.
As to `CCC(CCC(C)=O)COC(=O)c1ccccc1C(=O)O` (centres undefined), the mutagenic call runs as follows: (Test System: AMES SALMONELLA TYPHIMURIUM, Strain/Indicator: TA97, Metabolic Activation: NONE, Method: STANDARD PLATE) “inactive; negative”; (Test System: AMES SALMONELLA TYPHIMURIUM, Strain/Indicator: TA97, Metabolic Activation: RAT, LIVER, S-9, AROCLOR 1254, Method: STANDARD PLATE) “inactive; negative”; (Test System: AMES SALMONELLA TYPHIMURIUM, Strain/Indicator: TA97, Metabolic Activation: RAT, LIVER, S-9, DI(2-ETHYLHEXYL)PHTHALATE, Method: STANDARD PLATE) “inactive; negative”; under setting [2], “inactive; negative”; under setting [3], “inactive; negative”; (Test System: AMES SALMONELLA TYPHIMURIUM, Strain/Indicator: TA98, Metabolic Activation: RAT, LIVER, S-9, DI(2-ETHYLHEXYL)PHTHALATE, Method: STANDARD PLATE) “inactive; negative”. Besides, the mutagenic call runs as follows: under setting [1], “inactive; negative”; under setting [4], “inactive; negative”; (Test System: AMES SALMONELLA TYPHIMURIUM, Strain/Indicator: TA100, Metabolic Activation: RAT, LIVER, S-9, DI(2-ETHYLHEXYL)PHTHALATE, Method: STANDARD PLATE) “inactive; negative”; (Test System: AMES SALMONELLA TYPHIMURIUM, Strain/Indicator: TA102, Metabolic Activation: NONE, Method: STANDARD PLATE) “inactive; negative”; (Test System: AMES SALMONELLA TYPHIMURIUM, Strain/Indicator: TA102, Metabolic Activation: RAT, LIVER, S-9, AROCLOR 1254, Method: STANDARD PLATE) “inactive; negative”; (Test System: AMES SALMONELLA TYPHIMURIUM, Strain/Indicator: TA102, Metabolic Activation: RAT, LIVER, S-9, DI(2-ETHYLHEXYL)PHTHALATE, Method: STANDARD PLATE) “inactive; negative”.
Turning to `C1=Cc2c(ccc3nc4ccc5ccccc5c4cc23)CC1`, the mutagenic call by setting is: (Test System: AMES SALMONELLA TYPHIMURIUM, Strain/Indicator: TA98, Metabolic Activation: GUINEA PIG, LIVER, S-9, 3-METHYLCHOLANTHRENE, Method: STANDARD PLATE) “active; positive”; (Test System: AMES SALMONELLA TYPHIMURIUM, Strain/Indicator: TA100, Metabolic Activation: GUINEA PIG, LIVER, S-9, 3-METHYLCHOLANTHRENE, Method: STANDARD PLATE) “active; positive”.
Consider `CN1CCOCC1`, for which the mutagenic call runs as follows: (Test System: AMES SALMONELLA TYPHIMURIUM, Strain/Indicator: TA98, Metabolic Activation: NONE, Method: PREINCUBATION) “inactive; negative”; (Test System: AMES SALMONELLA TYPHIMURIUM, Strain/Indicator: TA98, Metabolic Activation: RAT, LIVER, S-9, PCB, Method: PREINCUBATION) “inactive; negative”; (Test System: AMES SALMONELLA TYPHIMURIUM, Strain/Indicator: TA100, Metabolic Activation: NONE, Method: PREINCUBATION) “inactive; negative”; (Test System: AMES SALMONELLA TYPHIMURIUM, Strain/Indicator: TA100, Metabolic Activation: RAT, LIVER, S-9, PCB, Method: PREINCUBATION) “inactive; negative”.
`C=Cc1ccc(N)cc1`: the mutagenic call runs as follows: (Test System: AMES SALMONELLA TYPHIMURIUM, Strain/Indicator: TA98, Metabolic Activation: HAMSTER, LIVER, S-9, AROCLOR 1254, Method: STANDARD PLATE) “active; positive”; under setting [2], “inactive; negative”; under setting [3], “inactive; negative”; (Test System: AMES SALMONELLA TYPHIMURIUM, Strain/Indicator: TA100, Metabolic Activation: HAMSTER, LIVER, S-9, AROCLOR 1254, Method: STANDARD PLATE) “active; positive”; under setting [1], “inactive; negative”; under setting [4], “inactive; negative”. For the same molecule, the mutagenic call by setting is: (Test System: MOUSE LYMPHOMA, Strain/Indicator: L5178Y (TK+/TK-), Metabolic Activation: NONE, Method: SUSPENSION/PLATE) “inactive; positive. reevaluation of results: negative”; (Test System: MOUSE LYMPHOMA, Strain/Indicator: L5178Y (TK+/TK-), Metabolic Activation: RAT, LIVER, S-9, AROCLOR 1254, Method: SUSPENSION/PLATE) “inactive; positive. reevaluation of results: negative”.
As for `Cc1cc(=O)oc2c3c4c(cc12)CCCN4CCC3`, the mutagenic call was “inactive; negative” (Test System: AMES SALMONELLA TYPHIMURIUM, Strain/Indicator: TA1538, Metabolic Activation: NONE, Method: STANDARD PLATE) and “active; positive” (Test System: AMES SALMONELLA TYPHIMURIUM, Strain/Indicator: TA1538, Metabolic Activation: RAT, LIVER, S-9, AROCLOR 1254, Method: STANDARD PLATE).
As to `CCCCNC(=O)OCC#CI`, the mutagenic call is “inactive; negative” (End Point: Ames Salmonella typhimurium, Test System: TA98, Metabolic Activation: S-9, Method: Not specified); “inactive; negative” (End Point: Ames Salmonella typhimurium, Test System: TA100, Metabolic Activation: S-9, Method: Not specified); “inactive; negative” (End Point: Ames Salmonella typhimurium, Test System: TA1535, Metabolic Activation: S-9, Method: Not specified); “inactive; negative” (End Point: Ames Salmonella typhimurium, Test System: TA1537, Metabolic Activation: S-9, Method: Not specified); “inactive; negative” (End Point: Ames Salmonella typhimurium, Test System: TA1538, Metabolic Activation: S-9, Method: Not specified); “inactive; negative” (End Point: In vivo micronucleus, Test System: Bone marrow polychromatic erythrocytes, Species: Mouse, Strain/Sex: CD-1/Males and females, Route: Oral). Further, the mutagenic call (Test System: Ames Salmonella typhimurium, Strain/Indicator: TA98, Metabolic Activation: None, Method: Not specified) is “inactive; negative”; the mutagenic call (Test System: Ames Salmonella typhimurium, Strain/Indicator: TA100, Metabolic Activation: None, Method: Not specified) is “inactive; negative”; the mutagenic call (Test System: Ames Salmonella typhimurium, Strain/Indicator: TA1535, Metabolic Activation: None, Method: Not specified) was “inactive; negative”; the mutagenic call (Test System: Ames Salmonella typhimurium, Strain/Indicator: TA1537, Metabolic Activation: None, Method: Not specified) was “inactive; negative”; the mutagenic call (Test System: Ames Salmonella typhimurium, Strain/Indicator: TA1538, Metabolic Activation: None, Method: Not specified) is “inactive; negative”.
